# Values quoted from earlier work in paper PMC10904332 (Science (New York, N.Y.), 2022).
# Details: known resistance mechanisms
substance,measurement,value
bacitracin,MIC increase from resistance mechanisms,> 254 fold
